{"source": "patent US7208157B2", "about": "“Proteolysis targeting chimeric pharmaceutical” (California Institute of Technology, priority 2000, dated 2007)", "key": {"[1]": {"target": "T1, MetAP-2 (Homo sapiens, UniProt P50579)", "T1 sequence (P50579 whole entry, species assumed)": "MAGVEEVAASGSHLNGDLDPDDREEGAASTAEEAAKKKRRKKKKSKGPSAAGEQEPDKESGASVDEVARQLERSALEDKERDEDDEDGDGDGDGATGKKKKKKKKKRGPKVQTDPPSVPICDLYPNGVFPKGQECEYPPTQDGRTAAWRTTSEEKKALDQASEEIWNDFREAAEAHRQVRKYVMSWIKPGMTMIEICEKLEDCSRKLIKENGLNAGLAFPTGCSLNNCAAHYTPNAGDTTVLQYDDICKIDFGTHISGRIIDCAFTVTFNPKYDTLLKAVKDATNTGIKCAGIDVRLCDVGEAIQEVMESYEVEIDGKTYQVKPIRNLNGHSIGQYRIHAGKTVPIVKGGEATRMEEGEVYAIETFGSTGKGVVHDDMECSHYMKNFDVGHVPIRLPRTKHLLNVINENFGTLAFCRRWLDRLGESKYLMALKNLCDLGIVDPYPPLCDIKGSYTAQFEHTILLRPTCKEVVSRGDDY", "assay": "Degradation experiments with Xenopus egg extracts", "assay_type": "biochemical, Xenopus laevis", "method": "Extracts from unfertilized Xenopus laevis eggs were prepared the day of the experiment, as described (See Murray, A. W., Methods Cell Biol., 3:581–605 (1991)). The MetAP-2-Protac-1 mixture (4 μl of 9 μM MetAP-2 plus 50 μMProtac-1) or MetAP-2 alone was added to […] of extract in addition to OVA (10 μM final), constitutively active IKK (IKK-EE, 0.4 μg), and okadaic acid (OA; 10 μM final). N-acetyl-leu-leu-norleucinal (LLnL, 50 μM final), epoxomicin (10 μM final), or DMSO vehicle were added to the indicated concentrations to inhibit degradation by the proteasome. The protease inhibitors chymostatin, pepstatin, and leupeptin ([…] final concentration) also were added to the extracts. Reactions were incubated for the indicated times at room temperature and terminated by adding 50 μl of SDS/PAGE loading buffer. Samples were evaluated by Western blotting as described above.\nHowever, the key issues are whether Protac-1 can specifically activate MetAP-2 degradation, and whether targeted degradation can be achieved by endogenous ubiquitin/proteasome pathway components at typical intracellular concentrations. To address these questions, MetAP-2 was preincubated with Protac-1 to allow the complexes to form, and then added the mixture to Xenopus egg extract supplemented with IKK-EE (See Mercurio, F., Zhu, et al., Science,. 278:860–66. (1997)), OA, and OVA. The addition of IKK-EE and OA was intended to sustain phosphorylation of the IkBa peptide moiety of Protac-1, whereas OVA was added to prevent the further linkage of Protac-1 to MetAP-2. […] Moreover, addition of both IKK-EE and OA was required for optimal degradation of MetAP-2-Protac-1. Similarly, we have seen specific turnover of the MetAP-2-Protac-1complex, but not free MetAP-2, in three independent experiments. […] MetAP-2 turnover was very specific, in that maximal degradation required agents predicted to sustain phosphorylation of the LkBa peptide."}, "[2]": {"target": "T1, MetAP-2", "T1 sequence (P50579 110-478 limits assumed)": "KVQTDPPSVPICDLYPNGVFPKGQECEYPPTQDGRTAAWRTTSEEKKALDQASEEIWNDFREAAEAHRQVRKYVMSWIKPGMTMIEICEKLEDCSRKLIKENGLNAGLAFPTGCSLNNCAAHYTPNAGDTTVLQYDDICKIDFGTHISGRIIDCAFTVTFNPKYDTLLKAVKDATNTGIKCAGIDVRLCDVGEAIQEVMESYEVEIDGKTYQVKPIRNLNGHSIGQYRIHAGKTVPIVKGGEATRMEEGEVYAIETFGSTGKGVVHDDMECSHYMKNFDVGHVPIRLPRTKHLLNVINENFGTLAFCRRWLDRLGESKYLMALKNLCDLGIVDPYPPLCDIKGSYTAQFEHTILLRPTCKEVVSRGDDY", "details": "covalent, active site His-231; cited from earlier work"}, "[3]": {"target": "T1, MetAP-2", "assay": "MetAP-2-Protac-1 coupling assay (SDS/PAGE, anti-MetAP-2 immunoblot)", "assay_type": "binding", "details": "MetAP-2 incubated with increasing Protac-1, or free IPP (50 μM) or free OVA (50 μM), room temperature 45 min", "method": "MetAP-2 (9 μM) was incubated with increasing concentrations of Protac-1 (dissolved in water) at room temperature for 45 min. Reactions were supplemented with SDS loading dye, fractionated on an SDS/10% polyacryl-amide gel, transferred onto a nitrocellulose membrane, and immunoblotted with rabbit polyclonal anti-MetAP-2 antiserum (Zymed). Enhanced chemiluminescence was performed by using Amersham Pharmacia detection reagents.\nThe IkBalpha-OVA chimera, Protac-1 (FIG. 1B), was synthesized as described above. […] A Western blot analysis was performed with anti-MetAP-2 antiserum. […] The specificity of MetAP-2 interaction with Protac-1 in vitro was also tested."}, "[4]": {"system": "MetAP-2", "assay": "In vitro ubiquitination of MetAP-2 by SCFβ-TRCP beads with E1, E2 (Cdc34), ubiquitin, ATP", "assay_type": "biochemical", "details": "1 hr at 30° C.; 47-kDa and 67-kDa MetAP-2 preparations; Western blot", "quoted_text": "Pellets from cells transfected with vector, pFLAG-β-TRCP, or pFLAG-Cul-1 were vortexed for 10 sec, then incubated on ice for 15 min. After centrifugation at 13,000 rpm in an Eppendorf microfuge (Germany) for 5 min at 4° C., the supernatant was added to 20 μl of FLAG M2 beads (Sigma), which were washed with lysis buffer three times before immu-noprecipitation. Lysates were incubated with the beads on a rotator for 2 hr at 4° C., followed by one wash with buffer A (25 mM Hepes buffer, pH 7.4/0.01% Triton X-100/150 mM NaCl) and one wash with buffer B (the same buffer without the Triton X-100). […] After the addition of ligand, the beads were rotated at room temperature for 1 hr. The beads were washed once each with buffers A and B. After centrifugation at 13,000 rpm in an Eppendorf microfuge (Germany) for 1 min, half of the bead and supernatant fractions, representing bound and unbound, respectively, were evaluated by Western blotting as described above. For ubiquitination reactions, 4 μl of 18 μM MetAP-2, 4 μl of 100 μM Protac-1, 0.5 ml of 0.1 μg/μl purified mouse E1, 1 μl of 0.5 μg/μl human Cdc34 E2, and 1 μl of 25 mM ATP were added to 20 μl (packed volume) of washed FLAG-M2 beads. […] SDS/PAGE loading buffer was added to terminate reactions, which were evaluated by Western blotting as described above. […]"}, "[5]": {"target": "T2, SCF^β-TRCP (Homo sapiens, UniProt Q9Y297)", "assay": "Binding assay: recruitment of MetAP-2 to SCFβ-TRCP beads", "set-up": "made in house", "details": "MetAP-2 (18 μM) preincubated with Protac-1 (100 μM) 45 min; beads 1 hr room temperature; vs control beads", "method": "293T cell pellets were lysed with 200 μl of lysis buffer (25 mMTris/Cl, pH 7.5/150 mM NaCl/0.1% Triton X-100/5 mM NaF/0.05 mM EGTA/1 mM PMSF). Pellets from cells transfected with vector, pFLAG-β-TRCP, or pFLAG-Cul-1 were vortexed for 10 sec, then incubated on ice for 15 min. After centrifugation at 13,000 rpm in an Eppendorf microfuge (Germany) for 5 min at 4° C., the supernatant was added to 20 μl of FLAG M2 beads (Sigma), which were washed with lysis buffer three times before immu-noprecipitation. […] The beads were washed once each with buffers A and B. After centrifugation at 13,000 rpm in an Eppendorf microfuge (Germany) for 1 min, half of the bead and supernatant fractions, representing bound and unbound, respectively, were evaluated by Western blotting as described above. […] SDS/PAGE loading buffer was added to terminate reactions, which were evaluated by Western blotting as described above.\nBefore testing the activity of Protac-1, an approach to isolate and assay SCF^β-TRCP complexes in vitro as described (See Tan, P., et al., Mol. Cell, 3:327–33 (1999)) was first adapted. […] The beads and supernatant then were evaluated by Western blot analysis for the presence of MetAP-2. […]"}, "[6]": {"target": "T2, SCF^β-TRCP", "assay": "Control ubiquitination of IKK-phosphorylated glutathione S-transferase-IkBalpha by SCFβ-TRCP immunoprecipitates", "assay_type": "biochemical", "set-up": "made in house; host or cells: 293T cells, transient transfection, anti-FLAG immunoprecipitation", "details": "anti-FLAG SCFβ-TRCP immunoprecipitates; data not shown", "from_the_text": "Before testing the activity of Protac-1, an approach to isolate and assay SCF^β-TRCP complexes in vitro as described (See Tan, P., et al., Mol. Cell, 3:327–33 (1999)) was first adapted. Lysates from 293T cells transfected with plasmids that encoded β-TRCP and Cul-1 proteins tagged with the FLAG epitope at the N terminus were immunoprecipitated with anti-FLAG antibody-conjugated resin. Immunoblot analysis confirmed that all components of SCF^β-TRCP were present in the anti-FLAG immunoprecipitate, including Skp 1, Hrt 1, and the transfected FLAG Cul-1 and FLAG β-TRCP (data not shown). Furthermore, control experiments confirmed that these immunoprecipitates promoted ubiquitination of IKK-phosphorylated glutathione S-transferase-LkBalpha in a manner that was inhibited by the IPP and Protac-1 (data not shown; ref. 7). To determine whether Protac-1 could recruit MetAP-2 to SCF^β-TRCP , MetAP-2 (18 μM) was first incubated with Protac-1 (100 μM) for 45 mm at room temperature. After isolation of SCF^β-TRCP complexes, the anti-FLAG beads were supplemented with the MetAP-2-Protac-l mixture and rotated at room temperature for 1 hr. The beads and supernatant then were evaluated by Western blot analysis for the presence of MetAP-2. […]"}}, "note": "Entries after “also recorded” stand apart in the source; their conditions may differ. Where a SMILES comes first, the peptide text is derived from it. [ ]: non-standard residue; d: D form. Nle = CCCC[C@H](N)C(=O)O", "data": [{"compound": "CCCC[C@@H](C=O)NC(=O)[C@H](CC(C)C)NC(=O)[C@H](CC(C)C)NC(C)=O", "note": "[LLnL, N-acetyl-leu-leu-norleucinal] (Ac-Leu-Leu-[Nle]-aldehyde)", "values": [{"measurement": "effect on degradation of MetAP-2-Protac-1", "setting": "[1]; LLnL 50 μM final added to extract", "value": "attenuated"}]}, {"compound": "CC[C@H](C)[C@H](NC(=O)[C@H]([C@@H](C)CC)N(C)C(C)=O)C(=O)N[C@H](C(=O)N[C@@H](CC(C)C)C(=O)[C@@]1(C)CO1)[C@@H](C)O", "note": "[epoxomicin]", "values": [{"measurement": "effect on degradation of MetAP-2-Protac-1", "setting": "[1]; epoxomicin 10 μM final added to extract", "value": "attenuated"}]}, {"compound": "CO[C@@H]1[C@H](OC(=O)/C=C/C=C/C=C/C=C/C(=O)O)CC[C@]2(CO2)[C@H]1[C@@]1(C)O[C@@H]1CC=C(C)C", "note": "[fumagillin]", "values": [{"measurement": "inhibition of MetAP-2", "setting": "[2]", "value": "inhibit MetAP-2 by covalently binding His-231 in the active site"}]}, {"compound": "IkBa peptide-suberate-Gly-ovalicinol [Protac-1]", "values": [{"measurement": "formation of MetAP-2-Protac-1 complex (upper band / doublet on anti-MetAP-2 Western blot)", "setting": "[3]", "value": "specifically conjugated to the OVA moiety of Protac-1 in a concentration-dependent manner"}, {"measurement": "formation of MetAP-2-Protac-1 complex (upper band / doublet on anti-MetAP-2 Western blot)", "setting": "[3]; listed as Protac", "value": "MetAP-2 binds Protac specifically and in a concentration-dependent manner"}, {"measurement": "ubiquitination of MetAP-2 by SCFβ-TRCP", "setting": "[4]", "value": "specifically elicited ubiquitination of MetAP-2 by SCF^β-TRCP; also recorded: ubiquitinated in the presence of Protac-1"}, {"measurement": "degradation of MetAP-2-Protac-1 complex", "setting": "[1]; Xenopus egg extract with IKK-EE, OA and OVA, room temperature, MetAP-2 alone not degraded", "value": "mostly degraded after 30 mm; also recorded: degraded by proteasomes in Xenopus extracts"}, {"measurement": "recruitment of MetAP-2 to SCFβ-TRCP beads", "setting": "[5]", "value": "specifically recruited MetAP-2 to SCF^β-TRCP"}, {"measurement": "inhibition of ubiquitination of IKK-phosphorylated GST-IkBalpha", "setting": "[6]", "value": "inhibited"}]}]}
